Like-named read-outs stand apart in the source and are kept apart here.
Legend:
[1] = target: T1, Full-length wild type HIV-1 integrase (SF1) (Human immunodeficiency virus type 1 group M subtype B, UniProt P04585); assay: Integrase strand-transfer scintillation proximity assay; assay type: biochemical; settings: 50 min at 37° C., 246 nM integrase, 50 nM host DNA
T1 construct: made in house; host or cells: E. coli BL21 (DE3)
Summary of the method: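 Recombinant full-length wild-type HIV-1 integrase (aa 1-288), E. coli-expressed, tested on biotinylated pre-processed U5 LTR viral ds-DNA with CA overhang bound to streptavidin SPA beads. [3H]-thymidine-labelled host ds-DNA serves as target; strand transfer read by scintillation proximity. A 3′ di-deoxy viral DNA control checks non-specific binding.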

[2] = test system: RF strain of HIV-1 in CEM-SS cells; assay: HIV-1 cell protection assay (XTT dye reduction); assay type: cell-based; settings: Human immunodeficiency virus 1, CEM-SS, 144 h
Summary of the method: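 CEM-SS cells infected with HIV-1 RF (moi 0.025–0.819) or mock-infected, 2×10^4 cells/well with half-log compound dilutions for six days. Viability by XTT/PMS reduction (4 h), absorbance 450 nm, as % of uninfected untreated cells. Therapeutic index = CC50/EC50.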

[3] = strand transfer, read-out: IC50
[4] = HIV-1 RF, CEM-SS cells, XTT dye reduction, six days, read-out: EC50

SMILES: CN(Cc1cnn(-c2ccccc2)c1)Cc1cn(Cc2ccc(F)cc2F)c2cnc(C(=O)NO)cc12 [Example 93, 1-(2,4-Difluorobenzyl)-N-hydroxy-3-({methyl[(1-phenyl-1H-pyrazol-4-yl)methyl]amino}methyl)-1H-pyrrolo[2,3-c]pyridine-5-carboxamide]
- IC50 [1, 3]: 187 nM
- EC50 [2, 4]: 71 nM

SMILES: O=C(NO)c1cc2c(CNCc3ccc(OC(F)F)cc3)cn(Cc3ccc(F)cc3F)c2cn1 [Example 94, 1-(2,4-Difluorobenzyl)-3-({[4-(difluoromethoxy)benzyl]amino}methyl)-N-hydroxy-1H-pyrrolo[2,3-c]pyridine-5-carboxamide]
- IC50 [1, 3]: 288 nM
- EC50 [2, 4]: 26 nM

SMILES: CN(CCS(C)(=O)=O)Cc1cn(Cc2ccc(F)cc2F)c2cnc(C(=O)NO)cc12 [Example 95, 1-(2,4-difluorobenzyl)-N-hydroxy-3-({methyl[2-(methylsulfonyl)ethyl]amino}methyl)-1H-pyrrolo[2,3-c]pyridine-5-carboxamide]
- IC50 [1, 3]: 127 nM
- EC50 [2, 4]: 17 nM

SMILES: O=C(NO)c1cc2c(CNCCC3CCOCC3)cn(Cc3ccc(F)cc3F)c2cn1 [Example 96, 1-(2,4-Difluorobenzyl)-N-hydroxy-3-({[2-(tetrahydro-2H-pyran-4-yl)ethyl]amino}methyl)-1H-pyrrolo[2,3-c]pyridine-5-carboxamide]
- IC50 [1, 3]: 511 nM
- EC50 [2, 4]: 30 nM

SMILES: Cc1ccc2c(c1)C(NCc1cn(Cc3ccc(F)cc3F)c3cnc(C(=O)NO)cc13)CCO2 (stereo not drawn) [Example 98, 1-(2,4-difluorobenzyl)-N-hydroxy-3-{[(6-methyl-3,4-dihydro-2H-chromen-4-yl)amino]methyl}-1H-pyrrolo[2,3-c]pyridine-5-carboxamide]
- IC50 [1, 3]: 256 nM
- EC50 [2, 4]: 100 nM

SMILES: O=C(NO)c1cc2c(CNCc3n[nH]c4c3CCC4)cn(Cc3ccc(F)cc3F)c2cn1 [Example 99, 1-(2,4-Difluorobenzyl)-N-hydroxy-3-{[(1,4,5,6-tetrahydrocyclopenta[c]pyrazol-3-ylmethyl)amino]methyl}-1H-pyrrolo[2,3-c]pyridine-5-carboxamide]
- IC50 [1, 3]: 277 nM
- EC50 [2, 4]: 31 nM

SMILES: Cc1nnc(CCNCc2cn(Cc3ccc(F)cc3F)c3cnc(C(=O)NO)cc23)[nH]1 [Example 100, 1-(2,4-Difluorobenzyl)-N-hydroxy-3-({[2-(5-methyl-4H-1,2,4-triazol-3-yl)ethyl]amino}methyl)-1H-pyrrolo[2,3-c]pyridine-5-carboxamide]
- IC50 [1, 3]: 270 nM
- EC50 [2, 4]: 10000 nM

SMILES: O=C(CC(NCc1cn(Cc2ccc(F)cc2F)c2cnc(C(=O)NO)cc12)C1CC1)NC1CC1 (stereo not drawn) [Example 101, 3-({[1-Cyclopropyl-3-(cyclopropylamino)-3-oxopropyl]amino}methyl)-1-(2,4-difluorobenzyl)-N-hydroxy-1H-pyrrolo[2,3-c]pyridine-5-carboxamide]
- IC50 [1, 3]: 472 nM
- EC50 [2, 4]: 73 nM

SMILES: O=C1CN(Cc2cn(Cc3ccc(F)cc3)c3cnc(C(=O)NOCc4ccccc4)cc23)CCN1 [Example 102, N-(Benzyloxy)-1-(4-fluorobenzyl)-3-[(3-oxopiperazin-1-yl)methyl]-1H-pyrrolo[2,3-c]pyridine-5-carboxamide]
- IC50 [1, 3]: 810 nM
- EC50 [2, 4]: 33 nM

SMILES: C=CCONC(=O)c1cc2c(CN3CCNC(=O)C3)cn(Cc3ccc(F)cc3)c2cn1 [Example 103, N-(Allyloxy)-1-(4-fluorobenzyl)-3-[(3-oxopiperazin-1-yl)methyl]-1H-pyrrolo[2,3-c]pyridine-5-carboxamide]
- IC50 [1, 3]: 702 nM
- EC50 [2, 4]: 130 nM

SMILES: O=C1CN(Cc2cn(Cc3ccc(F)cc3)c3cnc(C(=O)NOc4ccccc4)cc23)CCN1 [Example 104, 1-(4-Fluorobenzyl)-3-[(3-oxopiperazin-1-yl)methyl]-N-phenoxy-1H-pyrrolo[2,3-c]pyridine-5-carboxamide]
- IC50 [1, 3]: 182 nM
- EC50 [2, 4]: 4.45 nM

SMILES: O=C(NO)c1cc2c(COC[C@@H](O)CO)cn(Cc3ccc(F)cc3F)c2cn1 [Example 106]
- IC50 [1, 3]: 12 nM
- EC50 [2, 4]: 66.3 nM

SMILES: O=C(NO)c1cc2c(COC[C@H](O)CO)cn(Cc3ccc(F)cc3F)c2cn1 [Example 107, 1-(2,4-Difluorobenzyl)-3-({[(2S)-2,3-dihydroxypropyl]oxy}methyl)-hydroxy-1H-pyrrolo[2,3-c]pyridine-5-carboxamide]
- IC50 ([1]; IC50, strand transfer): 3.4 nM
- EC50 [2, 4]: 32.2 nM

SMILES: COCCOCc1cn(Cc2ccc(F)cc2)c2cnc(C(=O)N(C)O)cc12 [Example 108, 1-(4-Fluorobenzyl)-N-hydroxy-3-[(2-methoxyethoxy)methyl]-N-methyl-1H-pyrrolo[2,3-c]pyridine-5-carboxamide]
- IC50 [1, 3]: 21.2 nM
- EC50 [2]: 334 nM

SMILES: COCCOCc1cn(Cc2ccc(F)cc2)c2cnc(C(=O)NOC)cc12 [Example 109, 1-(4-Fluorobenzyl)-N-methoxy-3-[(2-methoxyethoxy)methyl]-1H-pyrrolo[2,3-c]pyridine-5-carboxamide]
- IC50 [1, 3]: 63 nM
- EC50 [2, 4]: 313 nM

SMILES: CN(O)C(=O)c1cc2c(COC[C@@H]3COC(C)(C)O3)cn(Cc3ccc(F)cc3)c2cn1 [Example 110, 3-({[(4R)-2,2-Dimethyl-1,3-dioxolan-4-yl]methoxy}methyl)-1-(4-fluorobenzyl)-N-hydroxy-N-methyl-1H-pyrrolo[2,3-c]pyridine-5-carboxamide]
- IC50 [1, 3]: 14 nM
- EC50 [2]: 341 nM

SMILES: CC1(C)OC[C@H](COCc2cn(Cc3ccc(F)cc3)c3cnc(C(=O)NO)cc23)O1 [Example 111, 3-({[(4S)-2,2-dimethyl-1,3-dioxolan-4-yl]methoxy}methyl)-1-(4-fluorobenzyl)-N-hydroxy-1H-pyrrolo[2,3-c]pyridine-5-carboxamide]
- IC50 [1, 3]: 20 nM
- EC50 [2, 4]: 77.4 nM

SMILES: CN(O)C(=O)c1cc2c(CN3CC[C@H]4CNC(=O)[C@H]4C3)cn(Cc3ccc(F)cc3F)c2cn1 [Example 113]
- IC50 [1, 3]: 40 nM
- EC50 [2, 4]: 437 nM

SMILES: CN(O)C(=O)c1cc2c(CN3CCNC(=O)C3)cn(Cc3ccc(F)cc3)c2cn1 [Example 114, 1-(4-fluorobenzyl)-N-hydroxy-N-methyl-3-[(3-oxopiperazin-1-yl)methyl]-1H-pyrrolo[2,3-c] pyridine-5-carboxamide]
- IC50 [1, 3]: 150 nM
- EC50 [2]: 351 nM

SMILES: CN(O)C(=O)c1cc2c(COCCN3CCCC3=O)cn(Cc3ccc(F)cc3)c2cn1 [Example 117, 1-(4-Fluorobenzyl)-N-hydroxy-N-methyl-3-{[2-(2-oxopyrrolidin-1-yl)ethoxy]methyl}-1H-pyrrolo[2,3-c]pyridine-5-carboxamide]
- IC50 [1, 3]: 200 nM
- EC50 [2, 4]: 401 nM

SMILES: CN(O)C(=O)c1cc2c(COC3CCOCC3)cn(Cc3ccc(F)cc3)c2cn1 [Example 118, 1-(4-Fluorobenzyl)-N-hydroxy-N-methyl-3-[(tetrahydro-2H-pyran-4-yloxy)methyl]-1H-pyrrolo[2,3-c]pyridine-5-carboxamide]
- IC50 [1, 3]: 57 nM
- EC50 [2, 4]: 313 nM

SMILES: C[C@@H](OCc1cn(Cc2ccc(F)cc2)c2cnc(C(=O)N(C)O)cc12)c1ccccc1 [Example 119, 1-(4-Fluorobenzyl)-N-hydroxy-N-methyl-3-{[(1R)-1-phenylethoxy]methyl}-1H-pyrrolo[2,3-c]pyridine-5-carboxamide]
- IC50 [1, 3]: 39 nM
- EC50 [2, 4]: 505 nM

SMILES: CCOCCOCc1cn(Cc2ccc(F)cc2)c2cnc(C(=O)N(C)O)cc12 [Example 120, 3-[(2-ethoxyethoxy)methyl]-1-(4-fluorobenzyl)-N-hydroxy-N-methyl-1H-pyrrolo[2,3-c]pyridine-5-carboxamide]
- IC50 [1, 3]: 57 nM
- EC50 [2, 4]: 307 nM

SMILES: COCCOCc1cn(Cc2ccc(F)cc2F)c2cnc(C(=O)N(C)O)cc12 [Example 123, 1 (2,4-Difluorobenzyl)-N-hydroxy-3-[(2-methoxyethoxy)methyl]-N-methyl-1H-pyrrolo[2,3-c]pyridine-5-carboxamide]
- IC50 [1, 3]: 51 nM
- EC50 [2]: 519 nM

From patent publication US7468375B2 (Pfizer Inc., priority 2004, dated 2008)
